{"source": "patent US6448239B1", "about": "“Peroxynitrite decomposition catalysts and methods of use thereof” (Trustees of Princeton University, priority 1999, dated 2002)", "key": {"[1]": {"test_system": "calf thymus DNA (CT-DNA)", "assay": "Calf thymus-DNA titration (UV-visible spectrum)", "assay_type": "binding", "experimental": "A 5 μM solution of 4-T(CX)PyP was prepared in 10 mM tris buffer+1 mM EDTA (pH=8.0). To 2 mL of this solution in a quartz cuvette, 1 μL aliquots of a 1.89 mM solution of calf thymus DNA (CT-DNA) in 10 mM tris+1 mM EDTA were added. The concentration of CT-DNA was determined by UV-visible spectrum. After each addition, the cuvette was vortexed to ensure good mixing, and the UV-visible spectrum was recorded. […] Several intermediate spectra were omitted for clarity.\nThe porphyrin 2-T(CX)PyP was titrated in an analogous way to 4-T(CX)PyP, as described above. […] Presumably, the ortho carboxamide groups provide sufficient steric bulk to prevent association of the positively-charged pyridyl groups with the negatively-charged sugar phosphate backbone. Even when CT-DNA was added in large excess to the solution of porphyrin, a redshift of only […] was observed."}, "[2]": {"test_system": "plasmid pBR322", "assay": "Cleavage of plasmid DNA with manganese pyridyl porphyrins, agarose gel", "settings": "1 mM Mn porphyrin, 50 μg/mL plasmid, 10 mM or 25 mM oxone, 5 min", "description": "Three forms of plasmid DNA are expected when Mn porphyrins interact with and cleave DNA, and they can be easily separated on an agarose gel. Uncleaved, supercoiled plasmid (Form I) will show the greatest mobility. In the event of a nick in the DNA, the supercoils will relax, and the open circular form of the plasmnid (Form II) will appear. Further oxidation will cleave the second strand of DNA as well, and leads to a linear form (Form III.) The relative electrophoretic mobilities are as follows: I>III>II.\nTwo concentrations of oxidant were used: 10 mM and 25 mM. All experiments were performed in 40 mM tris buffer+100 mM NaCl. […] Before reaction, porphyrin was allowed to incubate with plasmid for 30 min.\nA typical reaction was performed as follows: to a solution of 1 mM manganese porphyrin and 50 μg/mL plasmid in buffer was added enough oxone to make a final concentration of 10 mM or 25 mM. (Volume of the entire reaction was 20 μL.) The reaction mixture was vortexed, then allowed to react for 5 min. HEPES buffer (100 mM) was added to stop the reaction.\nEach sample was electrophoresed on a 1% agarose slab horizontal gel at 90V for 1 h at 24° C. in 40 mM tris-acetate (TAE) and 1 mM ETDA buffer. The agarose gel contained ethidium bromide (1 μg/mL) so that the lanes could be visualized by UV-vis, and the finished gel was photographed under UV illumination. Lanes 1-4 were run at 10 mM oxone, and lanes 5-8 were run at 25 mM oxone. The control lanes, C1 and C2, contained 10 mM and 25 mM oxone, respectively, but no porphyrin. […] The lane assignments include the following: lane 1: Mn 4-T(CX)PyP, lane 2: Mn 2-T(CX)PyP; lane 3, Mn 2-T(PEG3)PyP; lane 4: Mn 4-TMPyP; lane C1: plasmid+10 mM oxone; lane C2: Plasmid+25 mM oxone"}}}
{"substance": "4-Tetrakis(carboxamide)pyridyl Porphyrin [4-T(CX)PyP]", "values": [{"measurement": "redshift of Soret band (Δλmax)", "setting": "[1]; 5 μM porphyrin, 10 mM tris + 1 mM EDTA pH=8.0", "result": 12, "unit": "nm"}, {"measurement": "binding constant to DNA", "setting": "[1]; calculated from the titration", "result": "7.99×10^6"}, {"measurement": "association with DNA (in words)", "setting": "[1]; from change in Soret band", "result": "both porphyrin intercalation into DNA and outside stacking of porphyrin along the DNA backbone"}]}
{"substance": "Mn(III) 2-tetrakis(carboxamide)pyridyl porphyrin [Mn 2-T(CX)PyP]", "values": [{"measurement": "appearance of linear form of DNA (Form III)", "setting": "[2]", "result": "does not appear at all"}]}
{"substance": "Mn(III) 2-tetrakis(triethylene glycol monomethyl ether)pyridyl porphyrin [Mn 2-T(PEG3)PyP]", "values": [{"measurement": "appearance of linear form of DNA (Form III)", "setting": "[2]", "result": "does not appear at all"}]}
{"substance": "Mn(III) 4-tetrakis(carboxamide)pyridyl porphyrin [Mn 4-T(CX)PyP]", "values": [{"measurement": "degree of plasmid cleavage", "setting": "[2]", "result": "greatest degree of plasmid cleavage"}]}
